# ChEMBL document CHEMBL1129307, “5-(4-Chlorophenyl)-4-methyl-3-(1-(2-phenylethyl)piperidin-4-yl)isoxazole: a potent, selective antagonist at human cloned dopamine D4 receptors” (J Med Chem, 1996)
# Legend:
# D(3) dopamine receptor = D(3) dopamine receptor (Homo sapiens, UniProt P35462); experiment: biochemical
# Description: Displacement of [3H]spiperone from human Dopamine receptor D3 expressed in CHO cells
# D(4) dopamine receptor = molecular target: T1, D(4) dopamine receptor (Homo sapiens, UniProt P21917); experiment: biochemical
# T1 sequence (P21917 whole entry): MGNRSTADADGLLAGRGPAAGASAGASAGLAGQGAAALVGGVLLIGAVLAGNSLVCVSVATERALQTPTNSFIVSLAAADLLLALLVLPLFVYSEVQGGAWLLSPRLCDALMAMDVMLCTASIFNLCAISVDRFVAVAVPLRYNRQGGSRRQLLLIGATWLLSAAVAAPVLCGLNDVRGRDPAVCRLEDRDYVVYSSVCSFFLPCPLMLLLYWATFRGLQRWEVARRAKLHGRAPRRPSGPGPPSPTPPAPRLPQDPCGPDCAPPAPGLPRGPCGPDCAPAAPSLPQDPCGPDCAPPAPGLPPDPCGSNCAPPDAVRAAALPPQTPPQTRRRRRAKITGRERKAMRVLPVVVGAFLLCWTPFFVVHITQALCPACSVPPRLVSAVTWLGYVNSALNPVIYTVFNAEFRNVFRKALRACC
# Description: Displacement of [3H]spiperone from human Dopamine receptor D4 expressed in HEK293 cells
# Sequence of D(3) dopamine receptor (P35462 whole entry): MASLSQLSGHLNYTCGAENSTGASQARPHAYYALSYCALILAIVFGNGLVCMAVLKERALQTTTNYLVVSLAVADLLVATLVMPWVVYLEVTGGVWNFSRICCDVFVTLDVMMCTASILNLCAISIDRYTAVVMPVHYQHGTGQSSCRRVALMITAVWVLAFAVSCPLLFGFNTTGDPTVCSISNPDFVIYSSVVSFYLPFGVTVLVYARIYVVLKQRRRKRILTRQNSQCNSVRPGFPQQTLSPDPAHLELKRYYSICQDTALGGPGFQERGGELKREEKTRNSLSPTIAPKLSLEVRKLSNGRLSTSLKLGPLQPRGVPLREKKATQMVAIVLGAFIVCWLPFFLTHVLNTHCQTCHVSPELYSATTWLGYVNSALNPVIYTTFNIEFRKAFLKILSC
Compound,Ki (D(3) dopamine receptor),Ki (D(4) dopamine receptor)
Cc1c(C2CCN(CCc3ccccc3)CC2)n[nH]c1-c1ccc(Cl)cc1,1200 nM,1.2 nM
Clc1ccc(CN2CCC(c3cc(-c4ccc(Cl)cc4)on3)CC2)cc1,430 nM,44 nM
Clc1ccc(CN2CCC(c3cc(-c4ccc(Cl)cc4)[nH]n3)CC2)cc1,820 nM,61 nM
Clc1ccc(-c2cc(C3CCN(CCc4ccccc4)CC3)[nH]n2)cc1,> 4000 nM,5.5 nM
Cc1c(-c2ccc(Cl)cc2)noc1C1CCN(CCc2ccccc2)CC1,480 nM,2.5 nM
Clc1ccc(CN2CCC(c3cc(-c4ccc(Cl)cc4)no3)CC2)cc1,81 nM,3.6 nM
